{"source": "patent US20240299588A1", "about": "“NERVE LABEL” (UCL Business Ltd, priority 2021, published 2024)", "key": {"sciatic nerves [1]": {"system": "sciatic nerves", "experiment": "In vivo peripheral nerve labelling in rats, intravenous 5-ALA, fluorescence imaging of sciatic nerve", "parameters": "species or system Wistar rats", "protocol": "(§1) Images were obtained 24 hours after 5-ALA administration. A: bright field, B: fluorescence image with false colour scale (highest intensity red/white) in rats injected with porphyrin prodrug, C: control rat without any drug injection. Images were obtained with a CCD camera following excitation at 405 nm using a light-emitting diode (LED) and red porphyrin fluorescence was recorded at 620-650 nm. Scale bar 5 mm.\n(§2) 5-ALA was obtained from Sigma as an HCl salt in powder form, was stored inside a freezer. Before use, it was thawed, dissolved in a buffered aqueous solution at about pH 5, and then administered intravenously or orally.\n(§3) To investigate the potential of a porphyrin prodrug for in vivo peripheral nerve labelling, Wistar rats (n>10 were injected intravenously with the porphyrin prodrug (5-aminolevulinic acid, 5-ALA), as shown in FIG. 1. At set time-points after the injection, the rats were sacrificed and the sciatic nerves and brachial plexus (near the armpit) and surrounding tissues (e.g. muscle, fat tissues) were exposed. The fluorescence image was recorded using a CCD camera."}, "brachial plexus": {"system": "brachial plexus", "experiment": "In vivo peripheral nerve labelling in rats, intravenous 5-ALA, fluorescence imaging of brachial plexus", "parameters": "species or system Wistar rats", "protocol": "(§4) Images were obtained 24 hours after 5-ALA administration using a CCD camera following excitation at 405 nm and porphyrin fluorescence was recorded at 620-650 nm. Scale bar 5 mm.\nFalse colour scale, red/white corresponding to high intensity. BP: brachial plexus, ALN: axillary lymph node. (A): Fluorescence image of the brachial plexus 4 hours post-injection, and (B) the corresponding bright field image (C): Fluorescence image of the brachial nerve 24 hours post-injection. (D): Brachial plexus image in control rat without 5-ALA injection.\n5-ALA was obtained from Sigma as an HCl salt in powder form, was stored inside a freezer. […]\nas §3\nWistar rats were administered with 5-ALA intravenously at various concentrations including 100 mg/kg and 200 mg/kg. […] 5-ALA-induced fluorescence was also detected 4 hours after administration of 5-ALA."}, "sciatic nerve": {"system": "sciatic nerve", "experiment": "In vivo imaging of sciatic nerve in rat following oral administration of 5-ALA", "parameters": "species or system rats", "protocol": "as §1, with “(A) Bright” for “A: bright”, “(B)” for “B:”, “administered” for “injected”, “5-ALA.” for “porphyrin prodrug, C: control rat without any drug injection.”, “nm.” for “nm. Scale bar 5 mm.”\nas §2\nA high fluorescence signal-to-background ratio (SBR) on the peripheral nerves was observed compared to adjacent tissues. […] The results were reproducible and were tested in 5 rats."}, "sciatic nerves [2]": {"system": "sciatic nerves", "experiment": "In vivo visualisation of sciatic nerves at various times following intravenous administration of 5-ALA", "parameters": "species or system Wistar rats", "protocol": "as §4, §2\nWistar rats were administered with 5-ALA intravenously at various concentrations including 100 mg/kg and 200 mg/kg. In vivo visualisation of peripheral nerves such as sciatic nerves and brachial plexus were obtained at various post injection times ranging from 1 hours up to few weeks after administration of 5-ALA. […] 5-ALA-induced fluorescence was also detected 4 hours after administration of 5-ALA."}, "facial nerves": {"system": "facial nerves", "experiment": "In vivo visualisation of facial nerves following intravenous administration of 5-ALA", "parameters": "species or system Wistar rats", "details": "including 24 hours after administration", "protocol": "Images were obtained 24 hours after 5-ALA administration. (A) fluorescence image (highest intensity white colour) in rats administered with 5-ALA, (B) Bright field, in rats administered with 5-ALA, (C) Bright field, in rats administered with 5-control, and (D) fluorescence image (highest intensity white colour) in rats administered with control. Images were obtained with a CCD camera following excitation at 405 nm using a light-emitting diode (LED) and red porphyrin fluorescence was recorded at 620-650 nm.\nas §2\nWistar rats were administered with 5-ALA intravenously at different concentrations including 0 mg/kg (control), 100 mg/kg and 200 mg/kg. In vivo visualisation of facial nerves which are part of the cranial nerves were performed at various times including 24 hours after administration of 5-ALA. […] No fluorescence was detected in control rats (FIG. 8D)."}, "[3]": {"details": "sciatic nerve, intravenous injection, excitation 405 nm, fluorescence 620-650 nm, without optimisation of dose or time"}}}
{"smiles": "NCC(=O)CCC(=O)O", "note": "[5-ALA, 5-aminolevulinic acid]", "values": [{"measurement": "red porphyrin fluorescence in rat nerves", "setting": "sciatic nerves [1]; intravenous injection", "result": "highly selective and localised"}, {"measurement": "diameter of small nerve branches that can be resolved", "setting": "sciatic nerves [1]; intravenous injection, fluorescence imaging", "result": "~0.1", "unit": "mm"}, {"measurement": "nerve to fat tissue ratio (fluorescence signal-to-background ratio)", "setting": "sciatic nerves [1]; [3]", "result": "> 10"}, {"measurement": "nerve to muscle intensity ratio (fluorescence signal-to-background ratio)", "setting": "sciatic nerves [1]; [3]", "result": "> 15"}, {"measurement": "time at which porphyrin levels reach a peak in surrounding tissue", "setting": "sciatic nerves [1]; surrounding tissue (muscle, fat), then rapid decline to basal levels", "result": "~4", "unit": "h"}, {"measurement": "time course of nerve fluorescence in other peripheral nerves", "setting": "brachial plexus; brachial plexus, compared with sciatic nerve time course", "result": "same results"}, {"measurement": "brachial plexus labelling", "setting": "brachial plexus; intravenous injection", "result": "brachial plexus labelling"}, {"measurement": "red porphyrin fluorescence in rat nerves", "setting": "sciatic nerve; 24 hours after administration", "result": "highly selective and localised"}, {"measurement": "fluorescence signal ratio versus adjacent tissues", "setting": "sciatic nerve; tested in 5 rats", "result": "comparable to the intravenous injection route"}, {"measurement": "fluorescence intensity in nerve", "setting": "sciatic nerves [2]; 2 weeks after administration", "result": "returned close to background levels"}, {"measurement": "fluorescence intensity in nerve", "setting": "sciatic nerves [2]; 4 weeks after administration", "result": "returned close to background levels"}, {"measurement": "5-ALA-induced fluorescence (PpIX) in sciatic nerve", "setting": "sciatic nerves [2]; 4 hours after intravenous administration", "result": "detected"}, {"measurement": "5-ALA-induced fluorescence (PpIX) in sciatic nerve", "setting": "sciatic nerves [2]; 24 hours after intravenous administration", "result": "bright and localised"}, {"measurement": "visualisation of sciatic nerves", "setting": "sciatic nerves [2]; 3 days after systemic administration", "result": "clearly visualised"}, {"measurement": "visualisation of sciatic nerves", "setting": "sciatic nerves [2]; 5 days after systemic administration", "result": "clearly visualised"}, {"measurement": "shortest time after contacting or administration at which peripheral nerves can be visualised", "setting": "sciatic nerves [2]; peripheral nerves", "result": "≥ 1", "unit": "h"}, {"measurement": "time that peripheral nerves retain high levels of fluorescence compared to background after administration", "setting": "sciatic nerves [2]; peripheral nerves", "result": "up to 7 days"}, {"measurement": "time after administration at which the highest SBR may be achieved", "setting": "sciatic nerves [2]; peripheral nerves, PpIX cleared from adjacent tissues", "result": "about 24 hours"}, {"measurement": "5-ALA induced fluorescence (PpIX) in branches of facial nerves", "setting": "facial nerves", "result": "bright and localised"}]}
